{"source": "patent US12016943B2", "about": "“Antiperspirant or deodorant composition” (Firmenich SA, priority 2016, dated 2024)", "key": {"[1]": {"assay": "Sensory evaluation of spray deodorant on cotton t-shirts: perceived fragrance intensity", "details": "deodorant spray on t-shirt, immediately after application", "source_text": "Test formulations comprising either fragrance formulation 1 containing the β-thio carbonyl derivative profragrance of formula (I), commercially available as HALOSCENT®-D, at the amounts indicated, or fragrance formulation 1 containing the 0-thio carbonyl derivative profragrance of formula (I), commercially available as HALOSCENT®-I were formulated as deodorant sprays.\nOne gram of each of the test formulation was applied to separate 2-3 year old cotton t-shirts. In parallel, control formulations, comprising fragrance formulation alone (i.e., lacking the β-thio carbonyl derivative profragrance of formula (I)) were similarly applied to separate t-shirts.\nA minimum of 18 skilled panelists were asked to evaluate the intensity of the fragrance of the […], in a blind, balanced, randomized study, with a 20 second break between samples.\nThe panelists were asked to rank the intensity of the fragrance from 0 (not perceptible), to 10 (very strong odour). The results of the evaluation were analyzed using Analysis of Variance with Duncan's post-hoc analysis (α=0.05). The analyzed results are shown in FIG. 1, where the average for each sample at the times indicated are shown. The error bars indicate the 95% confidence level. ***=a significant difference at 99.9%; **=a significant difference at 99%; *=significant difference at 95%; NS=no significant difference."}, "[2]": {"assay": "Assessment of coloration of deodorant or antiperspirant formulations containing perfuming ingredients with or without Haloscent D", "type": "physicochemical", "design": "key to Coloration of antiperspirant stick: CO: color; COYE: yelow color; VSCOYE: very slight yellow color; SCOYE: slight yellow color; VCOYE: very yellow color; NC: no color; DECO: decoloration; CL: cloud; VCL: very cloud; WH: white; VCOBR: very brown color; COPI: ping color", "details": "perfuming ingredient 0.5 wt %; for Coloration of antiperspirant stick: after 7 days", "protocol": "(§1) Preparation of an Antiperspirant Spray Formulation: Using a high speed stirrer, Silica (Table 1) and Quaternium-18-Hectorite (Table 1) were added to the Isopropyl miristate (Table 1) and Cyclomethicone mixture (Table 1). Once completely swollen, Aluminium Chlorohydrate (Table 1) was added portion wise under stirring until the mixture was homogeneous and without lumps. The aerosol cans were filled with 25% Suspension of the suspension and 75% of Propane/Butane (2.5 bar).\n(§2) Preparation of Deodorant Spray Formulation: All the ingredients according to the sequence of the Table 2 were mixed and dissolved. Then the aerosol cans were filled, crimp and add the propellant (Aerosol filling: 40% active solution 60% Propane/Butane 2.5 bar).\n(§3) Part A was prepared by sprinkling little by little the Hydroxyethylcellulose (Table 3) in the water (Table 3) whilst rapidly stirring with the turbine. Stirring was continued until the Hydroxyethylcellulose had entirely swollen and giving a limpid gel. Then, Part B (Table 3) was poured little by little in Part A whilst continuing stirring until the whole was homogeneous. Part C was added (Table 3).\n(§4) Preparation of a Deodorant Stick Formulation: All the components of Part A were weighted (Table 4) and heated up to 70-75° C. Ceteareth-25 (Table 4) was added once the other Part A ingredients were mixed and heated. Once the Ceteareth-25 was dissolved, the Stearic Acid was added. Part B was prepared by dissolving the Triclosan (Table 4) in 1,2 Propylene Glycol (Table 4). Water which has evaporated was added. Slowly under mixing, Part B was poured into part A. To stock, a plastic bag into the bucket was put in to be sealed after cooling. Moulds was filled at about 70° C.\n(§5) Preparation of an Antiperspirant Stick Formulation: All the components of Part A were weighted (Table 5), heated up to 70-75° C. and mixed well. Ingredient of Part B was dispersed in Part A. The mixture was mixed and putted into a tick at 65° C.\n(§6) Assessment of Coloration in the Perfuming Ingredients: To set of deodorant or antiperspirant formulations of point a) to e) has been prepared. A perfuming ingredient (0.5 wt %—Table 6, 7 and 8) was added to the first set a and a perfuming ingredient (0.5 wt %—Table 6, 7 and 8) and Haloscent® D (0.5 wt %) were added to the second set. All these formulations were placed at 3° C. and 45° C. for several weeks. All formulations were evaluated in comparison with unperfumed deodorant or antiperspirant formulation. The coloration of each formulation was assessed by a minimum of 2 panelists."}, "[3]": {"assay": "Assessment of coloration of deodorant or antiperspirant formulations containing perfuming ingredients with or without Haloscent D", "type": "physicochemical", "design": "key: CO: color; COYE: yellow color; SCOYE: slight yellow color; VCOYE: very yellow color; NC: no color; DECO: discoloration; CL: cloud; VCL: very cloud; WH: white; VCOBR: very brown color; COPI: ping color", "details": "perfuming ingredient 0.5 wt %, after 15 days; for Coloration of deodorant spray: DEO SPRAY + Haloscent D 0.5 wt %; for Coloration of deodorant stick: DEO STICK + Haloscent D 0.5 wt %", "protocol": "as §1, §2, §3, §4, §5, §6"}, "[4]": {"assay": "Assessment of coloration of deodorant or antiperspirant formulations containing perfuming ingredients with or without Haloscent D", "type": "physicochemical", "design": "key: CO: color; COYE: yelow color; VSCOYE: very slight yellow color; SCOYE: slight yellow color; VCOYE: very yellow color; NC: no color; DECO: decoloration; CL: cloud; VCL: very cloud; WH: white; VCOBR: very brown color; COPI: ping color", "details": "perfuming ingredient 0.5 wt %, after 15 days", "protocol": "as §1, §2, §3, §4, §5, §6"}, "[5]": {"details": "AP Stick + Haloscent D 0.5 wt %, 3° C."}, "[6]": {"details": "AP Stick + Haloscent D 0.5 wt %, 45° C."}, "[7]": {"details": "AP SPRAY + Haloscent D 0.5 wt %, 3° C."}, "[8]": {"details": "AP SPRAY + Haloscent D 0.5 wt %, 45° C."}, "[9]": {"details": "DEO ROLL-ON + Haloscent D 0.5 wt %, 3° C."}, "[10]": {"details": "DEO ROLL-ON + Haloscent D 0.5 wt %, 45° C."}, "[11]": {"details": "DEO STICK + Haloscent D 0.5 wt %, 3° C."}}}
{"molecule": "CCCCCCCCCCCCSC(CC(C)=O)C1C(C)=CCCC1(C)C", "note": "(centres unmarked) [HALOSCENT®-I, 4-(dodecylthio)-4-(2,6,6-trimethylcyclohex-2-en-1-yl)butan-2-one]", "values": [{"measurement": "Perceived intensity of fragrance versus control formulation (FIG. 1)", "setting": "[1]; fragrance formulation 1 containing 3% HALOSCENT-I", "value": "significant increases"}]}
{"molecule": "CCCCCCCCCCCCSC(C)CC(=O)C1C(C)C=CCC1(C)C", "note": "(centres unmarked) [Haloscent ® D, 3-(dodecylthio)-1-(2,6,6-trimethylcyclohex-3-en-1-yl)butan-1-one]", "values": [{"measurement": "Coloration of antiperspirant stick", "setting": "[2]; [5]", "value": "DECO PI"}, {"measurement": "Coloration of antiperspirant stick", "setting": "[2]; [6]", "value": "DECO PI"}, {"measurement": "Coloration of deodorant stick", "setting": "[2]; DEO STICK + Haloscent D 0.5 wt %, 45° C., after 15 days", "value": "COYE CL"}, {"measurement": "Coloration of deodorant spray", "setting": "[3]; 45° C.", "value": "COYE"}, {"measurement": "Perceived intensity of fragrance versus control formulation (FIG. 1)", "setting": "[1]; fragrance formulation 1 containing 1.2% HALOSCENT-D", "value": "significant increases"}, {"measurement": "Coloration of antiperspirant spray", "setting": "[4]; [7]", "value": "NC"}, {"measurement": "Coloration of antiperspirant spray", "setting": "[4]; [8]", "value": "SCOYE"}, {"measurement": "Coloration of deodorant roll-on", "setting": "[4]; [9]", "value": "NC"}, {"measurement": "Coloration of deodorant roll-on", "setting": "[4]; [10]", "value": "NC"}, {"measurement": "Coloration of deodorant spray", "setting": "[4]; DEO SPRAY + Haloscent D 0.5 wt %, 3° C.", "value": "SCOYE"}, {"measurement": "Coloration of deodorant stick", "setting": "[4]; [11]", "value": "NC"}]}
{"molecule": "CC(C)=CCC/C(C)=C/CO", "note": "[(E)-3,7-DIMETHYL-2,6-OCTADIEN-1-OL]", "values": [{"measurement": "Coloration of antiperspirant stick", "setting": "[2]; [5]", "value": "VSCO"}, {"measurement": "Coloration of antiperspirant stick", "setting": "[2]; [6]", "value": "NC"}, {"measurement": "Coloration of antiperspirant stick", "setting": "[2]; AP Stick, 3° C.", "value": "DECO"}, {"measurement": "Coloration of antiperspirant stick", "setting": "[2]; AP Stick, 45° C.", "value": "NC"}, {"measurement": "Coloration of deodorant stick", "setting": "[3]; 3° C.", "value": "COYE"}, {"measurement": "Coloration of deodorant stick", "setting": "[3]; 45° C.", "value": "COYE"}, {"measurement": "Coloration of deodorant roll-on", "setting": "[4]; [9]", "value": "NC"}, {"measurement": "Coloration of deodorant roll-on", "setting": "[4]; [10]", "value": "NC"}, {"measurement": "Coloration of deodorant roll-on", "setting": "[4]; DEO ROLL-ON, 3° C.", "value": "NC"}, {"measurement": "Coloration of deodorant roll-on", "setting": "[4]; DEO ROLL-ON, 45° C.", "value": "NC"}, {"measurement": "Coloration of deodorant stick", "setting": "[4]; DEO STICK, 3° C.", "value": "NC"}, {"measurement": "Coloration of deodorant stick", "setting": "[4]; DEO STICK, 45° C.", "value": "NC"}]}
{"molecule": "1-OXA-12-CYCLOHEXADECEN-2-ONE (A) + 1-OXA-13-CYCLOHEXADECEN-2-ONE [HABANOLIDE]", "values": [{"measurement": "Coloration of antiperspirant stick", "setting": "[2]; [5]", "value": "DECO"}, {"measurement": "Coloration of antiperspirant stick", "setting": "[2]; [6]", "value": "SCOYE"}, {"measurement": "Coloration of antiperspirant stick", "setting": "[2]; AP Stick, 3° C.", "value": "DECO"}, {"measurement": "Coloration of antiperspirant stick", "setting": "[2]; AP Stick, 45° C.", "value": "VSCOYE"}, {"measurement": "Coloration of deodorant spray", "setting": "[3]; 3° C.", "value": "DECO"}, {"measurement": "Coloration of deodorant spray", "setting": "[3]; 45° C.", "value": "DECO"}, {"measurement": "Coloration of antiperspirant spray", "setting": "[4]; [7]", "value": "SCOYE"}, {"measurement": "Coloration of antiperspirant spray", "setting": "[4]; [8]", "value": "SCOYE"}, {"measurement": "Coloration of antiperspirant spray", "setting": "[4]; AP SPRAY, 3° C.", "value": "NC"}, {"measurement": "Coloration of antiperspirant spray", "setting": "[4]; AP SPRAY, 45° C.", "value": "NC"}, {"measurement": "Coloration of deodorant roll-on", "setting": "[4]; [9]", "value": "WH"}, {"measurement": "Coloration of deodorant roll-on", "setting": "[4]; [10]", "value": "VCL"}, {"measurement": "Coloration of deodorant roll-on", "setting": "[4]; DEO ROLL-ON, 3° C.", "value": "VCL"}, {"measurement": "Coloration of deodorant roll-on", "setting": "[4]; DEO ROLL-ON, 45° C.", "value": "VCL"}, {"measurement": "Coloration of deodorant spray", "setting": "[4]; DEO SPRAY, 3° C.", "value": "NC"}, {"measurement": "Coloration of deodorant spray", "setting": "[4]; DEO SPRAY, 45° C.", "value": "NC"}, {"measurement": "Coloration of deodorant stick", "setting": "[4]; [11]", "value": "NC"}, {"measurement": "Coloration of deodorant stick", "setting": "[4]; DEO STICK + Haloscent D 0.5 wt %, 45° C.", "value": "NC"}, {"measurement": "Coloration of deodorant stick", "setting": "[4]; DEO STICK, 3° C.", "value": "NC"}, {"measurement": "Coloration of deodorant stick", "setting": "[4]; DEO STICK, 45° C.", "value": "NC"}]}
